Reference: patent US20150051273A1, “USE OF DELPHINIDIN AGAINST STAPHYLOCOCCUS AUREUS” (Sapiotec GmbH, priority 2012, published 2015)
“Also recorded” adds a separate entry of the source.

Experiments:
[1] = Solubility of delphinidin chloride in aqueous cyclodextrin solutions; type: physicochemical; conditions: pure water, cyclodextrin concentration 0; excess delphinidin chloride, 30° C., 20 h, dark, 0.22 μm filter
Method: In this example, the complexing of delphinidin by different cyclodextrins and the solubility of the complex in aqueous solution are investigated.
Neutral aqueous solutions were prepared, containing 10 wt % of the respective cyclodextrin.
5 ml each of the aqueous cyclodextrin solutions and of pure water were introduced into glass flasks. Then an excess of delphinidin chloride was added.
The suspensions were stirred in the dark at 30° C. for 20 h. This was followed by filtration through a membrane filter with a 0.22 μm pore size.

[2] = test system: Staphylococcus aureus MRSA2318, MRSA2855, MSSA1155; experiment: Biofilm formation, static model, crystal violet assay; type: cell-based; conditions: S. aureus (both MSSA and MRSA), RPMI-1640, 37° C., 48 hours
From the text: (§1) Staphylococcus aureus MRSA2318 biofilm-positive clinical isolate from tracheal secretion of 22.04.2009 (Würzburg University Hospital, neurosurgical clinic and polyclinic I, intensive therapy unit); • Staphylococcus aureus MRSA2855 biofilm-positive clinical isolate from blood culture of 22.04.2009 (Würzburg University Hospital, medical clinic and polyclinic I, ITU); • Staphylococcus aureus MSSA1155 biofilm-positive clinical isolate from 27.04.2004 from abdominal cavity scrape (Würzburg University clinic, urology, unit B).
(§2) The growth and the analysis of the biofilm were determined in a static model by means of the crystal violet assay according to basic protocol 1 in Current Protocols in Microbiology 1B.1.2-1B.1.4 “MICROTITER PLATE BIOFILM ASSAY” [published online August 2011 in Wiley Online Library (wileyonlinelibrary.com) DOI: 10.1002/9780471729259. mc01b01s22].
(§3) Investigating the effect of delphinidin on the bacterial growth and the bacterial formation of biofilm took place by means of • a) visual evaluation of bacterial growth (static model), • b) vitality test (scrape on blood agar plates) • c) analysis of the biofilm in a static model by means of the crystal violet assay as described above in section 1.
The control used was sterile RPMI-1640. […]

[3] = test system: Klebsiella pneumoniae ATCC700603; experiment: Bacterial growth, static model (visual evaluation, vitality test); type: cell-based; conditions: K. pneumoniae; RPMI-1640, 37° C., 48 hours
From the text: (§4) Klebsiella pneumoniae ATCC700603 biofilm-positive clinical isolate from urine from an ESBL+(Extended Spectrum Beta-Lactamase) hospital patient (reference strain);
as §3
(§5) The control used was sterile RPMI-1640. Then delphinidin in solution in RPMI-1640 was added, from a dilution series produced beforehand, and the cell culture dish was incubated at 37° C. for 48 hours, the visual outcome thereof being shown in FIG. 2. The color change from (phenol) red to yellow correlates with the extent of the bacterial growth.
(§6) Scrapes of the bacteria from the culture dish are shown in FIG. 3 (P. aeruginosa ATCC9027), 4 (K. pneumoniae ATCC700603), 5 (MRSA2318), 6 (MRSA2855) and 7 (MSSA1155). “ST 26.1.11” and “ST 28.1.11” in the case of the scrapes on the agar plates refers to the respective scraping date of the duplicated experiments.

[4] = test system: Klebsiella pneumoniae ATCC700603; experiment: Biofilm formation, static model, crystal violet assay; type: cell-based; conditions: K. pneumoniae, RPMI-1640, 37° C., 48 hours
Method: as §4
The growth and the analysis of the biofilm were determined in a static model by means of the crystal violet assay according to basic protocol 1 in Current Protocols in Microbiology 1B.1.2-1B.1.4 “MICROTITER PLATE BIOFILM ASSAY” [published online August 2011 in Wiley Online Library (wileyonlinelibrary.com) DOI: 10.1002/9780471729259. mc01b01s22]. […]
(§7) With the same experimental setup, the biofilm was analyzed by means of the crystal violet test as described above in section 1, the outcome thereof, after 48 hours of incubation and the crystal violet test, is shown overall in FIG. 8, and in FIGS. 9-13 in each case after measurement of the optical density, processed graphically for the respective delphinidin concentrations in the case of the individual bacterial strains (FIG. 9: P. aeruginosa ATCC9027, FIG. 10: K. pneumoniae ATCC700603, FIG. 11: MRSA2318, FIG. 12: MRSA2855, FIG. 13: MSSA1155).

[5] = Stability tests in aqueous solution (delphinidin content by HPLC); type: physicochemical; conditions: 0.9% NaCl solution, 37° C., dark, start 1.584 mg/ml (complex) or 0.0216 mg/ml (uncomplexed)
Method: The delphinidin chloride content of the delphinidin-containing solutions was determined using a reversed-phase HPLC technique similar to that already described above. The following reagents were employed here:
The solutions were prepared at room temperature and then stored in closed vials in the dark at 37° C.
The delphinidin content was determined after 1, 2, 3, and 4 h. The table below reports the content found, as a percentage of the abovementioned starting concentration.

[6] = test system: Pseudomonas aeruginosa ATCC9027; experiment: Biofilm formation, static model, crystal violet assay; type: cell-based; conditions: P. aeruginosa, RPMI-1640, 37° C., 48 hours
Method: (§8) The strains selected were as follows: • Pseudomonas aeruginosa ATCC9027, biofilm-positive clinical isolate from an outer ear infection (reference strain);
as §2
as §3, with “1. […]” for “1.”
as §7

[7] = test system: Pseudomonas aeruginosa ATCC9027; experiment: Bacterial growth, static model (visual evaluation, vitality test); type: cell-based; conditions: P. aeruginosa; RPMI-1640, 37° C., 48 hours
From the text: as §8, §3, §5, §6

[8] = test system: Staphylococcus aureus MRSA2318, MRSA2855, MSSA1155; experiment: as above; type: cell-based; conditions: S. aureus (both MSSA and MRSA); RPMI-1640, 37° C., 48 hours
From the text: as §1, §3, §5
Scrapes of the bacteria from the culture dish are shown in FIG. 3 (P. aeruginosa ATCC9027), 4 (K. pneumoniae ATCC700603), 5 (MRSA2318), 6 (MRSA2855) and 7 (MSSA1155). […]

Structure (SMILES)	Delphinidin chloride (solubility achievable) [1] [µg/mL]	Effect on formation of biofilm [2]	Effect on growth [3]	Effect on formation of biofilm [4]	Delphinidin content as a percentage of the starting concentration ([5]; 0 h) [%]	Delphinidin content as a percentage of the starting concentration ([5]; 1 h) [%]	Delphinidin content as a percentage of the starting concentration ([5]; 2 h) [%]	Delphinidin content as a percentage of the starting concentration ([5]; 3 h) [%]	Delphinidin content as a percentage of the starting concentration ([5]; 4 h) [%]	Effect on formation of biofilm [6]	Effect on growth [7]	Effect on growth [8]
Oc1cc(O)c2cc(O)c(-c3cc(O)c(O)c(O)c3)[o+]c2c1.[Cl-] [Delphinidin chloride, delphinidin chloride]	70	–	–	–	–	–	–	–	–	–	–	–
Oc1cc(O)c2cc(O)c(-c3cc(O)c(O)c(O)c3)[o+]c2c1 [Delphinidin]	–	inhibiting effect	no inhibiting effect	no inhibiting effect; also recorded: appears still to be being stimulated	100	8.3	6.5	5.6	5.1	no inhibiting effect	no inhibiting effect	inhibiting effect
